Laboratory results: PubChem BioAssay AID330 (DTP/NCI, 2004)
“And” between values parts separate entries of the source, which are not always exact repeats. Identical values can stand only once. Inconclusive results and toxic doses are left out. How the source made its calls: active means survival T/C of 150% or more; inactive means T/C below 125% in these data.

Test system: P388 leukemia ip, CD2F1 mice, survival T/C
Assay: NCI In Vivo Anticancer Drug Screen. Data for tumor model P388 Leukemia (intraperitoneal) in CD2F1 (CDF1) mice
Conditions: endpoint: median survival time, higher = longer survival
How it was run: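 Mice carrying the transplanted tumor received test compound or vehicle. Survival was recorded in each group, and the value is the treated-group measurement divided by that of the vehicle-treated control group.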

[1] = dose: 100.0 mg/kg/injection, schedule: Q01DX001 (ip), vehicle: Klucel (hydroxypropylcellulose) (HPC)
[2] = dose: 200.0 mg/kg/injection, schedule: Q01DX001 (ip), vehicle: Klucel (hydroxypropylcellulose) (HPC)
[3] = dose: 400.0 mg/kg/injection, schedule: Q01DX001 (ip), vehicle: Klucel (hydroxypropylcellulose) (HPC)
[4] = dose: 1.56 mg/kg/injection, schedule: Q01DX009 (ip), vehicle: saline
[5] = dose: 6.25 mg/kg/injection, schedule: Q01DX009 (ip), vehicle: saline
[6] = dose: 50.0 mg/kg/injection, schedule: Q01DX009 (ip), vehicle: saline
[7] = dose: 50.0 mg/kg/injection, schedule: Q01DX005 (ip), vehicle: Klucel (hydroxypropylcellulose) (HPC)
[8] = dose: 100.0 mg/kg/injection, schedule: Q04DX003 (ip), vehicle: Klucel (hydroxypropylcellulose) (HPC)
[9] = dose: 200.0 mg/kg/injection, schedule: Q04DX003 (ip), vehicle: Klucel (hydroxypropylcellulose) (HPC)
[10] = dose: 400.0 mg/kg/injection, schedule: Q04DX003 (ip), vehicle: Klucel (hydroxypropylcellulose) (HPC)
[11] = dose: 50.0 mg/kg/injection, schedule: Q01DX005 (ip), vehicle: saline with Tween-80
[12] = dose: 12.5 mg/kg/injection, schedule: Q01DX009 (ip), vehicle: saline
[13] = dose: 25.0 mg/kg/injection, schedule: Q01DX009 (ip), vehicle: saline
[14] = dose: 100.0 mg/kg/injection, schedule: Q01DX005 (ip), vehicle: saline with Tween-80
[15] = dose: 200.0 mg/kg/injection, schedule: Q01DX005 (ip), vehicle: saline with Tween-80

Measured: T/C

NC(=O)CNC(c1ccccc1)c1ccccc1
inactive: dose: 37.5 mg/kg/injection, schedule: Q01DX009 (ip), vehicle: saline with Tween-80 107 % of control | dose: 75.0 mg/kg/injection, schedule: Q01DX009 (ip), vehicle: saline with Tween-80 106 % of control | dose: 150.0 mg/kg/injection, schedule: Q01DX009 (ip), vehicle: saline with Tween-80 100 % of control

C1CCC2C(C1)CC[N-]C2CCC1[N-]CCC2CCCCC21.C1CCC2C(C1)CC[N-]C2CCC1[N-]CCC2CCCCC21.[Ni+2].[O-][Cl+3]([O-])([O-])O (centres undefined)
inactive: dose: 25.0 mg/kg/injection, schedule: Q01DX001 (ip), vehicle: saline 100 % of control | dose: 50.0 mg/kg/injection, schedule: Q01DX001 (ip), vehicle: saline 100 % of control and 101 % of control | dose: 100.0 mg/kg/injection, schedule: Q01DX001 (ip), vehicle: saline 101 % of control and 108 % of control and 97 % of control | dose: 200.0 mg/kg/injection, schedule: Q01DX001 (ip), vehicle: saline 98 % of control and 100 % of control

Cc1cccc(Cl)c1NC1=NCCN1C(=O)CC(=O)c1ccccc1
inactive: dose: 3.13 mg/kg/injection, schedule: Q01DX009 (ip), vehicle: Klucel (hydroxypropylcellulose) (HPC) 107 % of control | dose: 6.25 mg/kg/injection, schedule: Q01DX009 (ip), vehicle: Klucel (hydroxypropylcellulose) (HPC) 105 % of control | dose: 12.5 mg/kg/injection, schedule: Q01DX009 (ip), vehicle: Klucel (hydroxypropylcellulose) (HPC) 99 % of control and 100 % of control

O=C1CCCc2cc([N+](=O)[O-])ccc2N1
inactive: [1] 101 % of control | [2] 103 % of control | [3] 102 % of control

CCN(CC)Cc1cc(C(=O)CC(c2ccccc2)S(=O)(=O)c2ccc(C)cc2)ccc1O (centres undefined)
inactive: [4] 100 % of control | dose: 3.12 mg/kg/injection, schedule: Q01DX009 (ip), vehicle: saline 94 % of control | [5] 97 % of control | [6] 90 % of control

C=CCCn1ccnc1[N+](=O)[O-]
inactive: dose: 12.5 mg/kg/injection, schedule: Q01DX009 (ip), vehicle: water 94 % of control | dose: 25.0 mg/kg/injection, schedule: Q01DX009 (ip), vehicle: water 93 % of control | dose: 50.0 mg/kg/injection, schedule: Q01DX009 (ip), vehicle: water 100 % of control

Nc1ccc(N=N/C(=N\Nc2ccccc2[As](=O)(O)O)C(=O)Nc2ccccc2)c(Cl)c1
inactive: dose: 6.25 mg/kg/injection, schedule: Q01DX005 (ip), vehicle: Klucel (hydroxypropylcellulose) (HPC) 119 % of control | dose: 25.0 mg/kg/injection, schedule: Q01DX005 (ip), vehicle: Klucel (hydroxypropylcellulose) (HPC) 117 % of control | [7] 110 % of control and 123 % of control

O=C(CN(OC(=O)c1ccccc1)C(=O)c1ccccc1)OCc1ccccc1
inactive: dose: 12.5 mg/kg/injection, schedule: Q01DX009 (ip), vehicle: distilled water + Tween-80 92 % of control | dose: 25.0 mg/kg/injection, schedule: Q01DX009 (ip), vehicle: distilled water + Tween-80 99 % of control | dose: 50.0 mg/kg/injection, schedule: Q01DX009 (ip), vehicle: distilled water + Tween-80 99 % of control | dose: 100.0 mg/kg/injection, schedule: Q01DX009 (ip), vehicle: distilled water + Tween-80 100 % of control | dose: 200.0 mg/kg/injection, schedule: Q01DX009 (ip), vehicle: distilled water + Tween-80 101 % of control

CCOP(O)(=S)OCC.[Yb]
inactive: [8] 96 % of control | [9] 99 % of control | [10] 90 % of control

CN=C(NC)c1ccc(NC(=O)/C=C/C(=O)Nc2ccc(C(=NC)NC)cc2)cc1
inactive: dose: 12.5 mg/kg/injection, schedule: Q01DX005 (ip), vehicle: saline with Tween-80 101 % of control | dose: 25.0 mg/kg/injection, schedule: Q01DX005 (ip), vehicle: saline with Tween-80 99 % of control | [11] 98 % of control and 103 % of control

COc1cccc([B-]23OCC[N+]2(CNC(=O)c2ccccc2O)CCO3)c1 (centres undefined)
inactive: [7] 106 % of control | dose: 100.0 mg/kg/injection, schedule: Q01DX005 (ip), vehicle: Klucel (hydroxypropylcellulose) (HPC) 104 % of control | dose: 200.0 mg/kg/injection, schedule: Q01DX005 (ip), vehicle: Klucel (hydroxypropylcellulose) (HPC) 112 % of control

CCCCN(CCCC)CC(O)c1c(C)c2ccccc2c2ccccc12 (centres undefined)
inactive: dose: 9.0 mg/kg/injection, schedule: Q01DX009 (ip), vehicle: saline with Tween-80 100 % of control | dose: 18.0 mg/kg/injection, schedule: Q01DX009 (ip), vehicle: saline with Tween-80 100 % of control | dose: 36.0 mg/kg/injection, schedule: Q01DX009 (ip), vehicle: saline with Tween-80 100 % of control

C[N+]1(N)CCOCC1
inactive: [12] 97 % of control | [13] 100 % of control | [6] 92 % of control

Cc1c([N+](=O)[O-])c(=O)oc2ccc3c(=O)ccoc3c12
inactive: [11] 98 % of control | [14] 96 % of control | [15] 99 % of control

Cc1c([N+](=O)[O-])c(=O)oc2c1ccc1occc(=O)c12
inactive: [11] 96 % of control | [14] 89 % of control | [15] 90 % of control

N#Cc1c(-c2ccccc2Cl)c(-c2ccccc2Cl)nn(CCO)c1=O
inactive: dose: 25.0 mg/kg/injection, schedule: Q04DX002 (ip), vehicle: distilled water + Tween-80 99 % of control | dose: 50.0 mg/kg/injection, schedule: Q04DX002 (ip), vehicle: distilled water + Tween-80 100 % of control | dose: 100.0 mg/kg/injection, schedule: Q04DX002 (ip), vehicle: distilled water + Tween-80 91 % of control | dose: 200.0 mg/kg/injection, schedule: Q04DX002 (ip), vehicle: distilled water + Tween-80 101 % of control

CC(=N/NC(=S)NCCN1CCCCC1)/C(C)=N\NC(=S)NCCN1CCCCC1
inactive: dose: 0.78 mg/kg/injection, schedule: Q01DX009 (ip), vehicle: saline 106 % of control | [4] 94 % of control | dose: 3.13 mg/kg/injection, schedule: Q01DX009 (ip), vehicle: saline 97 % of control | [5] 103 % of control | dose: 12.5 mg/kg/injection, schedule: Q04DX003 (ip), vehicle: saline with Tween-80 108 % of control | dose: 25.0 mg/kg/injection, schedule: Q04DX003 (ip), vehicle: saline with Tween-80 101 % of control

O=C(O)c1cn2cccnc2n1
inactive: [1] 100 % of control | [2] 98 % of control | [3] 99 % of control

Oc1ccc(Cl)cc1C1CCCCC1
inactive: [6] 100 % of control | dose: 100.0 mg/kg/injection, schedule: Q01DX009 (ip), vehicle: saline 100 % of control | dose: 200.0 mg/kg/injection, schedule: Q01DX009 (ip), vehicle: saline 98 % of control

Cc1cccc(/C(=C/c2ccc([N+](=O)[O-])cc2)C(=O)Nc2ccc(S(=O)(=O)F)cc2)c1
inactive: dose: 60.0 mg/kg/injection, schedule: Q01DX005 (ip), vehicle: saline with Tween-80 93 % of control | dose: 120.0 mg/kg/injection, schedule: Q01DX005 (ip), vehicle: saline with Tween-80 98 % of control

O=C1c2ccccc2C(=O)N1C(=NCc1ccccc1)c1ccccc1
inactive: [8] 104 % of control | [9] 104 % of control | [10] 109 % of control

CCCCCCCCCCCCCCCC[N+](C)(C)CCOC(C)=O
inactive: dose: 12.5 mg/kg/injection, schedule: Q01DX009 (ip), vehicle: saline with Tween-80 109 % of control | [12] 111 % of control | dose: 25.0 mg/kg/injection, schedule: Q01DX009 (ip), vehicle: saline with Tween-80 109 % of control | [13] 100 % of control
